Laboratory results: US20080153792A1, “Drug Identification and Treatment Method” (priority 2006, published 2008)

Tested on: NF-κB in nuclei from spleen cells
Experiment: kinetic analysis of NF-kB inhibition in vivo after LPS, Example 9
Design: species or system mouse
Settings: about 40 mg/kg i.p. 24 h before LPS
Procedure: Kinetic analysis of NF-kB inhibition in vivo. […] The drug was injected 24 hours before intraperitoneal injection of bacterial LPS (about an LD50/24). The study used two groups of 12 animals, vehicle control or drug administered 24 hours before LPS challenge. Spleens were harvested from 3 animals from both groups just before LPS challenge and at 1.5, 2.0 and 2.5 hours after administration of LPS.
Maximum NF-κB activation after LPS administration occurred at 1.5 hours in the vehicle controls, which was 4-fold increased over the pre-LPS level of activated NF-κB. The values for the vehicle control and drug treated animals are relative optical density units from ELISA measurement of NF-κB in nuclei from spleen cells.

With `C#C[C@]1(O)CC[C@H]2[C@@H]3[C@@H](O)C=C4C[C@@H](O)CC[C@]4(C)[C@H]3CC[C@@]21C` [17α-ethynylandrost-5-ene-3β,7β,17β-triol] the “activated NF-κB in spleen cell nuclei (ELISA)” value (from here on “activated NF-κB”) (0 hours (just before LPS)) was 22 relative optical density units, the “activated NF-κB” value (1.5 hours after LPS) was 2 relative optical density units and the “activated NF-κB” value (2.0 hours after LPS) was 7 relative optical density units. For the same compound, the “activated NF-κB” value (2.5 hours after LPS) was 9 relative optical density units.
